Results on 27 molecules are retold here after patent US9266867B2, “Piperidinyl monocarboxylic acids as S1P1 receptor agonists” (BIOPROJET, priority 2011, dated 2016).

pEC50: −log10 of the molar value. Where a name gives a salt, the structure may show the parent alone.

The target of the first assay is EDG-1 (Homo sapiens, UniProt P21453). The assay is described as follows: 35S-GTPγS binding assay, EDG1 (S1P1). The class given is biochemical.
Sequence of EDG-1 (P21453 whole entry): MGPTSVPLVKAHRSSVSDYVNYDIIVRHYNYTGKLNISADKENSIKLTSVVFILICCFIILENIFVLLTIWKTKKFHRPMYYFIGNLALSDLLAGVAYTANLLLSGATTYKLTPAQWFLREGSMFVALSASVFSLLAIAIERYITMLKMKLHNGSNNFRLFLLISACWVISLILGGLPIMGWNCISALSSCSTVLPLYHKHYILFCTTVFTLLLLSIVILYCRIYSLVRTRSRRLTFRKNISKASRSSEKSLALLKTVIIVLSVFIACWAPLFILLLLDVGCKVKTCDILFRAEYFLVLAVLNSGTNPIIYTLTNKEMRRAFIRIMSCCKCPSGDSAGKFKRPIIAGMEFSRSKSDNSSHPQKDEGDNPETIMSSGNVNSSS
Settings: not given
The arrangement: expressed in transfected cells. The protocol:
a) 35S-GTPγS Binding Assay GTP-γ-^35S binding was performed using […]15 μg protein of cell membranes suspended in 50 mM tris-HCl pH 7.5 containing 10 mM MgCl2, 100 mM NaCl and 10 μM GDP. The radioligand was 0.025 nM [^35S] GTP-γ-S and non specific binding determined in the presence of 10 μM non-radioactive GTP-γ-S. […] The maximal stimulation elicited by S1P was taken as a reference to define full or partial agonism and calculate the intrinsic activity (i.a.) of compounds.
On the technique in general: Binding of GTPγS marks nucleotide exchange on a G protein.
By pEC50 is commonly meant the negative decadic logarithm of the EC50, by convention in mol/L. As to `CC(C)Cc1ccc(-c2nc(-c3ccc(CN4CCC(C(=O)O)(c5ccccc5)CC4)cc3)no2)cc1Cl` [Example 23, 1-{4-[5-(3-Chloro-4-isobutylphenyl)-[1,2,4]-oxadiazol-3-yl]-benzyl}-4-phenylpiperidine-4-carboxylic acid tert-butyl amine salt], the pEC50 is more than 8.00.

Staying with this assay, now noted: Table 1b; read-out: EDG1 EC50.
Take `COCC1(C(=O)O)CCN(Cc2ccc(-c3noc(-c4ccc(CC(C)C)c(Cl)c4)n3)cc2)CC1` [Example 16, 1-{4-[5-(3-Chloro-4-isobutylphenyl)-[1,2,4]-oxadiazol-3-yl]-benzyl}-4-methoxymethylpiperidine-4-carboxylic acid tert-butyl amine salt]: the pEC50 was more than 9.00.
Still for that read-out and setting: in the case of `C=CCC1(C(=O)O)CCN(Cc2ccc(-c3noc(-c4ccc(-c5ccccc5)c(Cl)c4)n3)cc2)CC1` [Example 17, 4-Allyl-1-{4-[5-(2-chlorobiphenyl-4-yl)-[1,2,4]-oxadiazol-3-yl]-benzyl}piperidine-4-carboxylic acid tert-butyl amine salt] it was more than 9.00; in that of `CCCC1(C(=O)O)CCN(Cc2ccc(-c3noc(-c4ccc(-c5ccccc5)c(Cl)c4)n3)cc2)CC1` [Example 18, 1-{4-[5-(2-Chlorobiphenyl-4-yl)-[1,2,4]-oxadiazol-3-yl]-benzyl}-4-propylpiperidine-4-carboxylic acid tert-butyl amine salt], more than 9.00.
In the case of `COCCOCC1(C(=O)O)CCN(Cc2ccc(-c3noc(-c4ccc(-c5ccccc5)c(Cl)c4)n3)cc2)CC1` [Example 19, 1-{4-[5-(2-Chlorobiphenyl-4-yl)-[1,2,4]-oxadiazol-3-yl]-benzyl}-4-(2-methoxyethoxymethyl)piperidine-4-carboxylic acid tert-butyl amine salt], the negative logarithm of the EC50 (pEC50) was more than 9.00.
Same read-out and setting: with `O=C(O)C1(COCc2ccccc2)CCN(Cc2ccc(-c3noc(-c4ccc(-c5ccccc5)c(Cl)c4)n3)cc2)CC1` [Example 20, 4-Benzyloxymethyl-1-{4-[5-(2-chlorobiphenyl-4-yl)-[1,2,4]-oxadiazol-3-yl]-benzyl}piperidine-4-carboxylic acid tert-butyl amine salt] the figure was more than 9.00.
`CC(C)Cc1ccc(-c2nc(-c3ccc(CN4CCC(COCc5ccccc5)(C(=O)O)CC4)cc3)no2)cc1Cl` [Example 21, 4-Benzyloxymethyl-1-[4-{5-(3-chloro-4-isobutylphenyl)-[1,2,4]-oxadiazol-3-yl]-benzyl}piperidine-4-carboxylic acid tert-butyl amine salt]: the pEC50 was more than 9.00.
On the same count and under the same terms, with `O=C(O)C1(CO)CCN(Cc2ccc(-c3noc(-c4ccc(-c5ccccc5)c(Cl)c4)n3)cc2)CC1` [Example 22, 1-{4-[5-(2-Chlorobiphenyl-4-yl)-[1,2,4]-oxadiazol-3-yl]-benzyl}-4-hydroxymethylpiperidine-4-carboxylic acid tert-butyl amine salt] the figure was more than 9.00; with `CC(C)Cc1ccc(-c2nc(-c3ccc(CN4CCC(Cc5ccccc5)(C(=O)O)CC4)cc3)no2)cc1Cl` [Example 24, 4-Benzyl-1-[4-{5-(3-chloro-4-isobutylphenyl)-[1,2,4]-oxadiazol-3-yl]benzyl}-piperidine-4-carboxylic acid tert-butyl amine salt], more than 8.00.
Regarding `CC(C)Cc1ccc(-c2nc(-c3ccc(CN4CCC(Cc5ccc(F)cc5)(C(=O)O)CC4)cc3)no2)cc1Cl` [Example 25, 1-{4-[5-(3-Chloro-4-isobutyl-phenyl)-[1,2,4]-oxadiazol-3-yl]-benzyl}-4-(4-fluoro-benzyl)-piperidine-4-carboxylic acid tert-butyl amine salt], the pEC50 was more than 9.00.
The same measure, in the same setting: in the case of `CC(C)Cc1ccc(-c2nc(-c3ccc(CN4CCC(Cc5ccccc5F)(C(=O)O)CC4)cc3)no2)cc1Cl` [Example 26, 1-{4-[5-(3-Chloro-4-isobutyl-phenyl)-[1,2,4]-oxadiazol-3-yl]-benzyl}-4-(2-fluoro-benzyl)-piperidine-4-carboxylic acid tert-butyl amine salt] it was more than 9.00; in that of `COc1ccc(CC2(C(=O)O)CCN(Cc3ccc(-c4noc(-c5ccc(CC(C)C)c(Cl)c5)n4)cc3)CC2)cc1` [Example 27, 1-{4-[5-(3-Chloro-4-isobutyl-phenyl)-[1,2,4]-oxadiazol-3-yl]-benzyl}-4-(4-methoxy-benzyl)-piperidine-4-carboxylic acid tert-butyl amine salt], more than 9.00; in that of `COc1ccccc1CC1(C(=O)O)CCN(Cc2ccc(-c3noc(-c4ccc(CC(C)C)c(Cl)c4)n3)cc2)CC1` [Example 28, 1-{4-[5-(3-Chloro-4-isobutyl-phenyl)-[1,2,4]-oxadiazol-3-yl]-benzyl}-4-(2-methoxy-benzyl)-piperidine-4-carboxylic acid tert-butyl amine salt], more than 9.00.
Same read-out and setting: with `COCC1(C(=O)O)CCN(Cc2ccc(-c3noc(-c4ccc(-c5ccccc5)c(Cl)c4)n3)cc2)CC1` [Example 29, 1-{4-[5-(2-chlorobiphenyl-4-yl)-[1,2,4]-oxadiazol-3-yl]benzyl}-4-methoxymethylpiperidine-4-carboxylic acid tert-butyl amine salt] the figure was more than 9.00; with `CCC1(C(=O)O)CCN(Cc2ccc(-c3noc(-c4ccc(-c5ccccc5)c(Cl)c4)n3)cc2)CC1` [Example 30, 1-{4-[5-(2-Chlorobiphenyl-4-yl)-[1,2,4]-oxadiazol-3-yl]-benzyl}-4-ethylpiperidine-4-carboxylic acid tert-butyl amine salt], more than 9.00.
Same read-out and setting: with `CC(C)Cc1ccc(-c2nc(-c3ccc(CN4CCC(C)(C(=O)O)CC4)cc3)no2)cc1` [Example 31, 1-{4-[5-(4-Isobutyl-phenyl)-[1,2,4]-oxadiazol-3-yl]-benzyl}-4-methyl-piperidine-4-carboxylic acid tert-butyl amine salt] the figure was more than 8.00; with `COCCCCC1(C(=O)O)CCN(Cc2ccc(-c3noc(-c4ccc(CC(C)C)c(Cl)c4)n3)cc2)CC1` [Example 32, 1-{4-[5-(3-Chloro-4-isobutylphenyl-[1,2,4]-oxadiazol-3-yl]benzyl}-4-(4-methoxybutyl)piperidine-4-carboxylic acid tert-butylamine salt], more than 9.00; with `COCCOCC1(C(=O)O)CCN(Cc2ccc(-c3noc(-c4ccc(CC(C)C)c(Cl)c4)n3)cc2)CC1` [Example 33, 1-{4-[5-(3-chloro-4-isobutylphenyl)-[1,2,4]-oxadiazol-3-yl]benzyl}-4-(2-methoxyethoxymethyl)piperidine-4-carboxylic acid potassium salt], more than 9.00.
Regarding `CC(C)Cc1ccc(-c2nc(-c3ccc(CN4CCC(CCOc5ccccc5)(C(=O)O)CC4)cc3)no2)cc1Cl` [Example 34, 1-{4-[5-(3-Chloro-4-isobutyl-phenyl)-[1,2,4]-oxadiazol-3-yl]-benzyl}-4-(2-phenoxy-ethyl)-piperidine-4-carboxylic acid tert-butyl amine salt], the pEC50 was more than 9.00.
Same read-out and setting: in the case of `CC(C)Cc1ccc(-c2nc(-c3ccc(CN4CCC(Cc5c(F)cccc5F)(C(=O)O)CC4)cc3)no2)cc1Cl` [Example 35, 1-{4-[5-(3-Chloro-4-isobutyl-phenyl)-[1,2,4]-oxadiazol-3-yl]-benzyl}-4-(2,6-difluoro-benzyl)-piperidine-4-carboxylic acid tert-butyl amine salt] it was more than 9.00; in that of `CC(C)Cc1ccc(-c2nc(-c3ccc(CN4CCC(CC(C)C)(C(=O)O)CC4)cc3)no2)cc1Cl` [Example 36, 1-{4-[5-(3-Chloro-4-isobutyl-phenyl)-[1,2,4]-oxadiazol-3-yl]-benzyl}-4-isobutyl-piperidine-4-carboxylic acid tert-butyl amine salt], more than 8.00.
As to `CC(C)Cc1ccc(-c2nc(-c3ccc(CN4CCC(C(=O)O)(C(C)C)CC4)cc3)no2)cc1Cl` [Example 37, 1-{4-[5-(3-Chloro-4-isobutyl-phenyl)-[1,2,4]-oxadiazol-3-yl]-benzyl}-4-isopropyl-piperidine-4-carboxylic acid tert-butyl amine salt], the pEC50 was more than 9.00.
Take `CC(C)Cc1ccc(-c2nc(-c3ccc(CN4CCC(Cc5cccc(C(F)(F)F)c5)(C(=O)O)CC4)cc3)no2)cc1Cl` [Example 38, 1-{4-[5-(3-Chloro-4-isobutyl-phenyl)-[1,2,4]-oxadiazol-3-yl]-benzyl}-4-(3-trifluoromethyl-benzyl)-piperidine-4-carboxylic acid tert-butyl amine salt]: the pEC50 was more than 8.00.
As for `CC(C)Cc1ccc(-c2nc(-c3ccc(CN4CCC(Cc5ccco5)(C(=O)O)CC4)cc3)no2)cc1Cl` [Example 39, 1-{4-[5-(3-Chloro-4-isobutyl-phenyl)-[1,2,4]-oxadiazol-3-yl]-benzyl}-4-furan-2-ylmethyl-piperidine-4-carboxylic acid tert-butyl amine salt], the pEC50 is more than 8.00.
The same measure, in the same setting: in the case of `CC(C)Cc1ccc(-c2nc(-c3ccc(CN4CCC(Cc5ccccn5)(C(=O)O)CC4)cc3)no2)cc1Cl` [Example 40, 1-{4-[5-(3-Chloro-4-isobutyl-phenyl)-[1,2,4]-oxadiazol-3-yl]-benzyl}-4-pyridin-2-ylmethyl-piperidine-4-carboxylic acid tert-butyl amine salt] it was more than 9.00; in that of `COc1ccccc1OCCC1(C(=O)O)CCN(Cc2ccc(-c3noc(-c4ccc(CC(C)C)c(Cl)c4)n3)cc2)CC1` [Example 41, 1-{4-[5-(3-Chloro-4-isobutyl-phenyl)-[1,2,4]-oxadiazol-3-yl]-benzyl}-4-[2-(2-methoxy-phenoxy)-ethyl]-piperidine-4-carboxylic acid tert-butyl amine salt], more than 9.00; in that of `CC(C)Cc1ccc(-c2nc(-c3ccc(CN4CCC(Cc5cccnc5)(C(=O)O)CC4)cc3)no2)cc1Cl` [Example 42, 1-{4-[5-(3-Chloro-4-isobutyl-phenyl)-[1,2,4]-oxadiazol-3-yl]-benzyl}-4-pyridin-3-ylmethyl-piperidine-4-carboxylic acid tert-butyl amine salt], more than 9.00.
